Assay results published in patent US20060074255A1, “3-Methyl-20-epi-vitamin D derivatives” (priority 2000, published 2006).

Biological target: T1, bovine thymus vitamin D receptor (Bos taurus, UniProt Q28037)
T1 construct: Bovine thymus 1α,25-dihydroxyvitamin D3 receptor was purchased from Yamasa Biochemcal; purchased Yamasa Biochemcal (Choshi, Chiba, Japan) lot; 112631; host or cells: bovine thymus (tissue preparation)
T1 sequence (Q28037 1-426): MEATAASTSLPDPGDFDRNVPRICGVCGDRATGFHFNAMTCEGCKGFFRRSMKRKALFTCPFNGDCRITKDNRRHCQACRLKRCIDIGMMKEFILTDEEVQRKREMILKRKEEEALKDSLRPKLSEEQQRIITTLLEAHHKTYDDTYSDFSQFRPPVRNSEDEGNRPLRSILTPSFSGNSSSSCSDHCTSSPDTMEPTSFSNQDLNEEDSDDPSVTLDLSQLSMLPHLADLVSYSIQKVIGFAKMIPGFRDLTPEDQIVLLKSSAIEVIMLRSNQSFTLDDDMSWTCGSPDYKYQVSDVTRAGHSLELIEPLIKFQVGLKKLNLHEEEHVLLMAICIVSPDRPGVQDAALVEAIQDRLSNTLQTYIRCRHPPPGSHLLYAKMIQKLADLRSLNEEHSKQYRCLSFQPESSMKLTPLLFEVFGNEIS
Test: Assay for Binding to Bovine Thymus Vitamin D Receptor (VDR)
Conditions: relative value with 1α,25-dihydroxyvitamin D3 taken as 100; X=(y/x)×100 from concentrations inhibiting 50% of [3H]-1α,25-dihydroxyvitamin D3 binding to VDR
Protocol: Assay for Binding to Bovine Thymus Vitamin D Receptor (VDR)
Compounds 14, 16, 19 and 21 synthesized in the above Examples 1 to 4 were tested for their binding properties to bovine thymus vitamin D receptor.
Ethanol solutions of 1α,25-dihydroxyvitamin D3 (the standard substance) and Compounds 14, 16, 19 and 21 were prepared at various concentrations. Bovine thymus 1α,25-dihydroxyvitamin D3 receptor was purchased from Yamasa Biochemcal (Choshi, Chiba, Japan) (lot. 112631) and, just before use, one ampule (approximately 25 mg) of the receptor was dissolved in 55 mL of 0.05 M phosphate buffer (pH 7.4) containing 0.3M KCl and 5 mM dithiothreitol.
Each of the ethanol solutions (50 μl) of the test compounds and 1α,25-dihydroxyvitamin D3 was put into a respective tube with 500 μl (0.23 mg protein) of the receptor solution, pre-incubated at 25° C. for 1 hour, and [^3H]-1α,25-dihydroxyvitamin D3 was added at the final concentration of 0.1 nM, followed by incubation overnight at 4° C. Each of the reaction mixtures was mixed with DCC (dextran coated charcoal), left for 30 minutes at 4° C. and centrifuged at 3000 rpm for ten minutes to separate the bound and free forms of [^3H]-1α,25-dihydroxyvitamin D3. Each of the resultant supernatants (500 μl) was mixed with ACS-II (9.5 ml) (AMERSHAM, England) for radioactivity measurement.
The binding properties of the test compounds expressed in relative value with that of 1α,25-dihydroxyvitamin D3 taken as 100 were shown in Table below. The values were calculated according to the following equation. X=(y/x)×100 • X: relative VDR binding property of a test compound • y: concentration of 1α,25-dihydroxyvitamin D3 that inhibits 50% of the binding of [^3H]-1α,25-dihydroxyvitamin D3 and VDR
x: concentration of the test compound that inhibits 50% of the binding of [^3H]-1α,25-dihydroxyvitamin D3 and VDR

VDR binding properties	Compound
0.035	C=C1/C(=C\C=C2/CCC[C@@]3(C)C2CCC3[C@@H](C)CCCC(C)(C)O)C[C@@](C)(O)C[C@H]1O (stereo partly drawn) [Compound 14, (5Z,7E)-(1R,3R,20S)-3-methyl-9,10-seco-5,7,10(19)-cholestatriene-1,3,25-triol]
70	C=C1/C(=C\C=C2/CCC[C@@]3(C)C2CCC3[C@@H](C)CCCC(C)(C)O)C[C@@](C)(O)C[C@@H]1O (stereo partly drawn) [Compound 16, (5Z,7E)-(1S,3R,20S)-3-methyl-9,10-seco-5,7,10(19)-cholestatriene-1,3,25-triol]
0.24	C=C1/C(=C\C=C2/CCC[C@@]3(C)C2CCC3[C@@H](C)CCCC(C)(C)O)C[C@](C)(O)C[C@@H]1O (stereo partly drawn) [Compound 19, (5Z,7E)-(lS,3S,20S)-3-methyl-9,10-seco-5,7,10(19)-cholestatriene-1,3,25-triol]
<0.01	C=C1/C(=C\C=C2/CCC[C@@]3(C)C2CCC3[C@@H](C)CCCC(C)(C)O)C[C@](C)(O)C[C@H]1O (stereo partly drawn) [Compound 21, (5Z,7E)-(1R,3S,20S)-3-Methyl-9,10-seco-5,7,10(19)-cholestatriene-1,3,25-triol]
